{"source": "ChEMBL document CHEMBL3797140", "about": "“Acridin-3,6-dialkyldithiourea hydrochlorides as new photosensitizers for photodynamic therapy of mouse leukemia cells” (Bioorg Med Chem, 2016)", "key": {"L1210 [1]": {"system": "L1210", "assay": "Induction of necrosis in mouse L1210 cells at 0.5 uM preincubated for 1 hr followed by 1.05 J/cm2 UV-A irradiation measured after 5 hrs by Annexin Red based flow cytometry", "type": "functional"}, "L1210 [2]": {"system": "L1210", "assay": "Decrease in ATP level in mouse L1210 cells at 0.5 uM preincubated for 1 hr followed by 1.05 J/cm2 UV-A irradiation measured after 6 hrs by luciferase reporter assay", "type": "functional", "design": "scale not given: the % may be the effect or the level left"}, "[3]": {"assay": "Drug uptake in nucleus of mouse L1210 cells at 2 uM preincubated for 1 hr followed by 1.05 J/cm2 UV-A irradiation by SytoRed staining-based flow cytometry", "type": "ADME, cell-based", "details": "l1210, 2 µM"}, "[4]": {"assay": "Drug uptake in mitochondria of mouse L1210 cells at 2 uM preincubated for 1 hr followed by 1.05 J/cm2 UV-A irradiation by MitoRed staining-based flow cytometry", "type": "ADME", "details": "l1210, 2 µM"}, "[5]": {"assay": "Drug uptake in lysosome of mouse L1210 cells at 2 uM preincubated for 1 hr followed by 1.05 J/cm2 UV-A irradiation by LysoTracker staining-based flow cytometry", "type": "ADME, cell-based", "details": "l1210, 2 µM"}, "L1210 [6]": {"system": "L1210", "assay": "Phototoxicity against mouse L1210 cells assessed as cell viability preincubated for 1 hr followed by 1.05 J/cm2 UV-A irradiation measured after 48 hrs by MTT assay in presence of pepstatin A", "type": "functional, cell-based"}, "L1210 [7]": {"system": "L1210", "assay": "Phototoxicity against mouse L1210 cells assessed as cell viability preincubated for 1 hr followed by 1.05 J/cm2 UV-A irradiation measured after 48 hrs by MTT assay in presence of 3-methyladenine", "type": "functional, cell-based"}, "L1210 [8]": {"system": "L1210", "assay": "Induction of necrosis in mouse L1210 cells at >= 1 uM preincubated for 1 hr followed by 1.05 J/cm2 UV-A irradiation", "type": "functional"}, "L1210 [9]": {"system": "L1210", "assay": "Induction of apoptosis in mouse L1210 cells assessed as caspase 3 activation at 0.5 to 1 uM preincubated for 1 hr followed by 1.05 J/cm2 UV-A irradiation measured after 4 to 6 hrs by Western blot method", "type": "functional, cell-based"}, "L1210 [10]": {"system": "L1210", "assay": "Induction of apoptosis in mouse L1210 cells assessed as caspase 9 activation at 1 uM preincubated for 1 hr followed by 1.05 J/cm2 UV-A irradiation measured after 4 to 6 hrs by Western blot method", "type": "functional, cell-based"}, "L1210 [11]": {"system": "L1210", "assay": "Induction of apoptosis in mouse L1210 cells assessed as Bax level at 0.5 to 1 uM preincubated for 1 hr followed by 1.05 J/cm2 UV-A irradiation measured after 4 to 6 hrs by Western blot method", "type": "functional, cell-based"}, "L1210 [12]": {"system": "L1210", "assay": "Induction of apoptosis in mouse L1210 cells assessed as decrease in Bcl2 level at 0.5 to 1 uM preincubated for 1 hr followed by 1.05 J/cm2 UV-A irradiation measured after 4 to 6 hrs by Western blot method", "type": "functional, cell-based"}, "L1210 [13]": {"system": "L1210", "assay": "Induction of autophagy in mouse L1210 cells assessed as accumulation of LC3BII at 0.5 to 1 uM preincubated for 1 hr followed by 1.05 J/cm2 UV-A irradiation measured after 4 to 6 hrs by Western blot method", "type": "functional, cell-based"}, "L1210 [14]": {"system": "L1210", "assay": "Induction of apoptosis in mouse L1210 cells assessed as caspase 3 activation at 0.5 uM preincubated for 1 hr measured after 8 hrs by Western blot method in absence of light", "type": "cell-based", "details": "l1210, 8 h"}, "L1210 [15]": {"system": "L1210", "assay": "Induction of apoptosis in mouse L1210 cells assessed as caspase 9 activation at 0.5 uM preincubated for 1 hr measured after 8 hrs by Western blot method in absence of light", "type": "cell-based", "details": "l1210, 8 h"}, "L1210 [16]": {"system": "L1210", "assay": "Induction of apoptosis in mouse L1210 cells assessed as Bax level at 0.5 uM preincubated for 1 hr measured after 8 hrs by Western blot method in absence of light", "type": "cell-based", "details": "l1210, 8 h"}, "L1210 [17]": {"system": "L1210", "assay": "Induction of apoptosis in mouse L1210 cells assessed as decrease in Bcl2 level at 0.5 uM preincubated for 1 hr measured after 8 hrs by Western blot method in absence of light", "type": "cell-based", "details": "l1210, 8 h"}, "L1210 [18]": {"system": "L1210", "assay": "Induction of autophagy in mouse L1210 cells assessed as accumulation of LC3BII at 0.5 uM preincubated for 1 hr measured after 8 hrs by Western blot method in absence of light", "type": "cell-based", "details": "l1210, 8 h"}, "[19]": {"assay": "Induction of ROS generation measured after UV-A irradiation by spin trapping agent DMPO based EPR spectroscopy", "type": "physicochemical"}, "[20]": {"assay": "Cytotoxicity against human HL60 cells after 48 hrs by MTT assay", "type": "functional, cell-based", "details": "HL-60, 48 h"}, "[21]": {"assay": "Cytotoxicity against human HL60/ADR cells after 48 hrs by MTT assay", "type": "functional, cell-based"}, "[22]": {"assay": "Induction of ROS generation measured 2 mins after UV-A irradiation by spin trapping agent DMPO based EPR spectroscopy", "type": "physicochemical"}, "L1210 [23]": {"system": "L1210", "assay": "Induction of cell cycle arrest in mouse L1210 cells assessed as accumulation at G1 phase at 0.5 and 1 uM preincubated for 1 hr followed by 1.05 J/cm2 UV-A irradiation measured after 24 hrs by propidium iodide staining-based flow cytometry (reference value: 16.8 +/- 0.6%)", "type": "functional"}, "L1210 [24]": {"system": "L1210", "assay": "Phototoxicity against mouse L1210 cells assessed as cell viability preincubated with 0.5 nM bafilomycin A1 followed by compound exposure for 1 hr followed by 1.05 J/cm2 UV-A irradiation measured after 48 hrs by MTT assay in presence of pepstatin A", "type": "functional, cell-based"}, "L1210 [25]": {"system": "L1210", "assay": "Phototoxicity against mouse L1210 cells assessed as cell viability preincubated with 10 nM chloroquine followed by compound exposure for 1 hr followed by 1.05 J/cm2 UV-A irradiation measured after 48 hrs by MTT assay in presence of pepstatin A", "type": "functional, cell-based"}, "[26]": {"assay": "Drug uptake in lysosome of mouse L1210 cells at 2 uM preincubated with […] followed by compound exposure for 1 hr followed by 1.05 J/cm2 UV-A irradiation by LysoTracker staining-based flow cytometry", "type": "ADME, cell-based", "details": "l1210, 1 h"}, "[27]": {"assay": "Drug uptake in lysosome of mouse L1210 cells at 2 uM preincubated with 10.5 nM bafilomycin A1 followed by compound exposure for 1 hr followed by 1.05 J/cm2 UV-A irradiation by LysoTracker staining-based flow cytometry", "type": "ADME, cell-based", "details": "l1210, 1 h"}}, "note": "The source made the active and inactive calls. No cut-off for these calls is given here."}
{"smiles": "CCCNC(=S)Nc1ccc2cc3ccc(NC(=S)NCCC)cc3nc2c1.Cl", "values": [{"measurement": "Activity", "setting": "L1210 [1]", "value": 24, "unit": "%"}, {"measurement": "Activity", "setting": "L1210 [2]", "value": 30, "unit": "%"}, {"measurement": "Drug uptake", "setting": "[3]", "value": "Active"}, {"measurement": "Drug uptake", "setting": "[4]", "value": 53, "unit": "%"}, {"measurement": "Drug uptake", "setting": "[5]", "value": "Active"}, {"measurement": "Activity", "setting": "L1210 [6]", "value": "inactive"}, {"measurement": "Activity", "setting": "L1210 [7]", "value": "inactive"}, {"measurement": "Activity", "setting": "L1210 [8]", "value": 95, "unit": "%"}, {"measurement": "Activity", "setting": "L1210 [9]", "value": "inactive"}, {"measurement": "Activity", "setting": "L1210 [10]", "value": "Active"}, {"measurement": "Activity", "setting": "L1210 [11]", "value": "inactive"}, {"measurement": "Activity", "setting": "L1210 [12]", "value": "Active"}, {"measurement": "Activity", "setting": "L1210 [13]", "value": "Active"}, {"measurement": "Activity", "setting": "L1210 [14]", "value": "Non-toxic"}, {"measurement": "Activity", "setting": "L1210 [15]", "value": "Non-toxic"}, {"measurement": "Activity", "setting": "L1210 [16]", "value": "Non-toxic"}, {"measurement": "Activity", "setting": "L1210 [17]", "value": "Non-toxic"}, {"measurement": "Activity", "setting": "L1210 [18]", "value": "Non-toxic"}, {"measurement": "Activity", "setting": "[19]", "value": "Active"}, {"measurement": "IC50", "setting": "[20]", "value": 7.2, "unit": "µM"}, {"measurement": "IC50", "setting": "[21]", "value": 7.2, "unit": "µM"}, {"measurement": "Activity", "setting": "[22]", "value": "Active"}, {"measurement": "Activity", "setting": "L1210 [23]", "value": "Active"}, {"measurement": "Activity", "setting": "L1210 [24]", "value": "inactive"}, {"measurement": "Activity", "setting": "L1210 [25]", "value": "inactive"}, {"measurement": "Drug uptake", "setting": "[26]", "value": "Not Active"}, {"measurement": "Drug uptake", "setting": "[27]", "value": "Not Active"}]}
